Measurements reported in patent US20250074908A1, “SALT OF ROCK INHIBITOR, CRYSTAL FORM OF SALT, COMPOSITION, AND PHARMACEUTICAL USE” (WUHAN CREATERNA SCIENCE AND TECHNOLOGY CO., LTD., priority 2022, published 2025).
pIC50: −log10 of the molar value.

How the values were obtained:
[1] = In-vitro cytotoxicity assay, CCK-8 method; format: cell-based; settings: human, HepG2 cells
Method: In-vitro cytotoxicity assay for compound I was performed in HepG2 cells using the CCK-8 method. HepG2 cells (Beina Bio) in the logarithmic growth phase were collected, the concentration of cell suspension was adjusted, and then the cells were plated on a 96-well cell culture plate at 50000 cells/well. The cells were then incubated in a cell incubator (5%, 37° C.) overnight. After 80%-90% cell confluence in the plate was achieved, medium change was performed, and then the test compound at each concentration gradient or vehicle (DMSO) was added. The resulting mixture was incubated in the cell incubator (5%, 37° C.) for 48 h. After the treatment was completed, the medium in the plate was discarded. The plate was washed twice with PBS, and a CCK-8 working solution (Beyotime) was added at 100 μL per well. The resulting mixture was then incubated at 37° C. for 1.5 h in the dark. The absorbance at OD450 nm was measured for each well on a microplate reader, and the CC50 value of each compound was analyzed and calculated.

[2] = Pharmacokinetic study in rats; format: in vivo, SD rats; settings: male, SD, rat, in vivo, po, 10 mg/kg
Method: Compound I, 2-hydroxyethanesulfonate of compound I, ethanesulfonate (crystal form I) of compound I, tartrate of compound I, and sulfate of compound I were each accurately weighed, and the required volume of vehicle was added. The mixture was stirred for 5 min, then sonicated below 25° C. until no large particles were visible to the naked eye, and further stirred for 30 min until a homogeneous suspension was obtained. The suspension was then used for administration.
Male SPF-grade SD rats (Beijing Vital River Laboratory Animal Technology Co., Ltd.) were given compound I, the 2-hydroxyethanesulfonate of compound I, the ethanesulfonate of compound I (crystal form I), the tartrate of compound I, and the sulfate of compound I by single intragastric administration after an acclimation period (with free access to water and food). Blood was collected from the orbital venous plexus of the rats at 0.167 h, 0.5 h, 1 h, 2 h, 3 h, 4 h, 6 h, 9 h, 12 h, and 24 h after administration. Each blood sample was centrifuged at 3500×g for 10 min at 4° C. The supernatant was then collected, and the concentration of compound I in the plasma was measured by LC-MS/MS (AB Sciex TRIPLE QUAD 3500). The data were analyzed using a non-compartmental model in WinNonlin (version 5.2.1 Pharsight, Mountain View, CA) to obtain PK parameters.

ROCK1 kinase = molecular target: T1, ROCK1 kinase (Homo sapiens, UniProt Q13464); assay: In-vitro evaluation of ROCK1 kinase selectivity (HTRF KinEASE-STK); format: biochemical
T1 construct: purchased Invitrogen
Method: ROCK1 activity was detected using a 96-well (Cisbio) time-resolved fluorometric assay. The assay for ROCK1 was performed in the following assay buffer: 5 mM MgCl2 (Sigma), 1 mM DTT (Sigma), and 1× kinase buffer. The kinase buffer was used for dilution. 7.5 μL of ROCK1 kinase (Invitrogen) was first added to a 96-well microplate to achieve a final concentration of 0.4 ng/μL, and then 0.25 μL of the compound (DMSO content: 1%) was added. The mixture was incubated at room temperature for 0.5 h. To start the reaction, the kinase buffer was also used to mix ATP (Aladdin) and the substrate STK-substrate 2-biotin. 7.5 μL of the mixed solution was added to the microplate to achieve final concentrations of 3.53 μM and 1 μM. The resulting mixture was incubated at room temperature for another 2 h. 5 mL of detection buffer was mixed with STK antibody-Cryptate, and then an appropriate volume of the mixture was mixed with an equal volume of streptavidin-XL665. 10 μL of the resulting mixture was added to stop the reaction. After further incubation for about 1 h, the microplate was read on a Molecular Devices SpectraMax i3x multifunctional microplate reader. The kinase buffer, the STK-substrate 2-biotin, the detection buffer, the STK antibody-Cryptate, and the streptavidin-XL665 were all from HTRF KinEASE-STK kit (Cisbio, 1000 tests, 61GSTXLA).

ROCK2 kinase = molecular target: T2, ROCK2 kinase (Homo sapiens, UniProt O75116); assay: In-vitro evaluation of ROCK2 kinase activity (HTRF KinEASE-STK); format: biochemical
T2 construct: purchased Invitrogen PV3759
Method: ROCK2 activity screening: ROCK2 activity was detected using a 96-well (Cisbio) time-resolved fluorometric assay. The assay for ROCK2 was performed in the following assay buffer: 5 mM MgCl2 (Sigma), 1 mM DTT (Sigma), and 1× kinase buffer. The kinase buffer was used for dilution. 7.5 μL of ROCK2 kinase (Invitrogen, PV3759) was first added to a 96-well microplate to achieve a final concentration of 0.4 ng/μL, and then […] of compound I (DMSO content: 1% (volume fraction)) was added. The mixture was incubated at room temperature for 0.5 h. To start the reaction, the kinase buffer was used to mix ATP (Aladdin) and the substrate STK-substrate 2-biotin. 7.5 μL of the mixed solution was added to the microplate to achieve final concentrations of 6.739 μM and 1 μM. The resulting mixture was incubated at room temperature for another 2 h. 5 mL of detection buffer was mixed with STK antibody-Cryptate, and then an appropriate volume of the mixture was mixed with an equal volume of streptavidin-XL665. 10 μL of the resulting mixture was added to the microplate to stop the reaction. After further incubation for about 1 h, the microplate was read on a Molecular Devices Spectra Max i3x multifunctional microplate reader. […]

[3] = Chemical stability on storage up to 3 months (HPLC purity), Table 13-4; format: physicochemical; settings: 40° C./75% humidity, sealed and protected from light
[4] = as above; format: physicochemical; settings: for Purity (%), 230 nm, Month 1 / Purity (%), 230 nm, Month 3: sealed and protected from light
Method: B) The HPLC method used for the stability study was as follows:
The vials were sealed with tin foil and then separately placed under the conditions of 40° C. temperature/75% humidity or 25° C. temperature/60% humidity for about 3 months. The samples after being placed for 0 months, 2 weeks, 1 month and 3 months were taken and each dissolved in a diluent to prepare a solution at about 1.0 mg/mL, which was then tested for chemical stability by HPLC analysis using Shimadzu LC-20ADxr.

T2 sequence (O75116 whole entry): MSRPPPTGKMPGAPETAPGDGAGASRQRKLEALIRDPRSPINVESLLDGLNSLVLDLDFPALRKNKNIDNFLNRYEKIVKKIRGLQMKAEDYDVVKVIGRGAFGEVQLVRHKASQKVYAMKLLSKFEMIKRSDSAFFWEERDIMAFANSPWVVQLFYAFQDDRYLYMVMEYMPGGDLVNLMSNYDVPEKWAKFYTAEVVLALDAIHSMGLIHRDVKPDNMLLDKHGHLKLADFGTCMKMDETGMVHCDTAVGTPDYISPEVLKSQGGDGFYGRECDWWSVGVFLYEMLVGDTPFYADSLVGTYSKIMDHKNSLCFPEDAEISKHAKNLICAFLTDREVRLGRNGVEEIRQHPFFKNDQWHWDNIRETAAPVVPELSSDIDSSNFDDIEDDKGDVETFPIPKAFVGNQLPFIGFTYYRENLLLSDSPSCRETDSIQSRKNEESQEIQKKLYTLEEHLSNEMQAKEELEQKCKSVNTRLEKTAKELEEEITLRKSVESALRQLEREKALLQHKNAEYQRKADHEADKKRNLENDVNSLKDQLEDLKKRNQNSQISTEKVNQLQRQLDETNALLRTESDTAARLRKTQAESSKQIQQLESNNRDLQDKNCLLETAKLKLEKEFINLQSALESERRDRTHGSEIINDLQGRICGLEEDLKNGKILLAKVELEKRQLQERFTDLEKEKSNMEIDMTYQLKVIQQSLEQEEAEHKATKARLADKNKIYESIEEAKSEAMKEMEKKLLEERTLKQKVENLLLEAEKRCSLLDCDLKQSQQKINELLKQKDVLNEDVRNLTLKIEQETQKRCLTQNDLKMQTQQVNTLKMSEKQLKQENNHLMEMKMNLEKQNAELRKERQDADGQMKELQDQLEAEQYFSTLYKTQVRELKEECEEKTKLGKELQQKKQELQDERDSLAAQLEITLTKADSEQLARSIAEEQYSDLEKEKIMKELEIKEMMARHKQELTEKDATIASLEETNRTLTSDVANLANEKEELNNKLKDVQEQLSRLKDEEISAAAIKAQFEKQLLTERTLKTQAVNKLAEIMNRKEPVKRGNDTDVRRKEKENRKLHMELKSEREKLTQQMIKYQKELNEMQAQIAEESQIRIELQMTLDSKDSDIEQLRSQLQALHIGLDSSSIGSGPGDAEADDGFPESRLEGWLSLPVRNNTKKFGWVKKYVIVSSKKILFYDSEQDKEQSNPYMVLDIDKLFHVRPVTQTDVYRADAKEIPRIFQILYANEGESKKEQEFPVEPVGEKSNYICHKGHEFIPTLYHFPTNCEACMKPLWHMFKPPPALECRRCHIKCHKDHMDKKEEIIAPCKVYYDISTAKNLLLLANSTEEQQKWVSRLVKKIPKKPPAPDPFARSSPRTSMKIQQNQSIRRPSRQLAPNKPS
T1 sequence (Q13464 whole entry): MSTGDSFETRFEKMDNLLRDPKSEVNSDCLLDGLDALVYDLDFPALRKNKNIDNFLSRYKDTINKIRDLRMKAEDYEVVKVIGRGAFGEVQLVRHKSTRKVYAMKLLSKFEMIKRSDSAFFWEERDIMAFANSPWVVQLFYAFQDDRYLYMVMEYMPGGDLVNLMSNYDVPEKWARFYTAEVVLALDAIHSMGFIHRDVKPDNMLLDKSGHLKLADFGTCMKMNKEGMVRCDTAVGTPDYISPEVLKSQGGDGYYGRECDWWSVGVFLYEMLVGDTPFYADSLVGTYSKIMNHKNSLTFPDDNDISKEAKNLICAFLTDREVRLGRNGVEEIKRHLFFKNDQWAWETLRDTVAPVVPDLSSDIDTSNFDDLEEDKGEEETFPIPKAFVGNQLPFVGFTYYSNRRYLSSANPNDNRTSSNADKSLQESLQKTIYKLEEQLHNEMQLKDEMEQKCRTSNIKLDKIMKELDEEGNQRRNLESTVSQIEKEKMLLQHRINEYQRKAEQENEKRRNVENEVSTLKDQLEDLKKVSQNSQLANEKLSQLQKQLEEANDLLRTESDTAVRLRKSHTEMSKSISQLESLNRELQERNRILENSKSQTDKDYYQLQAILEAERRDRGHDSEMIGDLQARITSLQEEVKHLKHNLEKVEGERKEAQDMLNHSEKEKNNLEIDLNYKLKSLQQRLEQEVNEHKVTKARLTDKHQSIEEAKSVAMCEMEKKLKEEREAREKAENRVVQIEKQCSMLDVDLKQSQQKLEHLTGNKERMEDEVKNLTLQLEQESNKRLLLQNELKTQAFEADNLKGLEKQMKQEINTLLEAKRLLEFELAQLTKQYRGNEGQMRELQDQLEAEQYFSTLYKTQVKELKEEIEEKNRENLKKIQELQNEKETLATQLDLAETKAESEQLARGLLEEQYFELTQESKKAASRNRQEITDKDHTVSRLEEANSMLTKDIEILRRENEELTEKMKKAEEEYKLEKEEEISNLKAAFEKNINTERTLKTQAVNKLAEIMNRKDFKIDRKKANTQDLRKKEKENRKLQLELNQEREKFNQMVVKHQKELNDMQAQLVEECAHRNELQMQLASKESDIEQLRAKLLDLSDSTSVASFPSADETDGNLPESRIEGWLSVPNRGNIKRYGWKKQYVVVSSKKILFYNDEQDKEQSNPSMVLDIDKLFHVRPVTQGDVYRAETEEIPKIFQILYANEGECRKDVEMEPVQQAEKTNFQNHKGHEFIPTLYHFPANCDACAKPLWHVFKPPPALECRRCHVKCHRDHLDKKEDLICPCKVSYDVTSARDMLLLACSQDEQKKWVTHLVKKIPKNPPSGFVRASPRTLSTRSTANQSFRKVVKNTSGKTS

Row | Structure (SMILES) | CC50 at 48 h [1] | AUC(0-t) [2] | Cmax [2] | pIC50 (ROCK1 kinase) | pIC50 (ROCK2 kinase) | Purity (%), 230 nm, Month 2 [3] | stability in chemical properties ([4]; 25° C./60% humidity and 40° C./75% humidity (sealed and protected from light)) | Purity (%), 230 nm, Month 1 ([4]; 25° C./60% humidity) | Purity (%), 230 nm, Month 3 ([4]; 25° C./60% humidity) | Purity (%), 230 nm, Month 1 ([4]; 40° C./75% humidity) | Purity (%), 230 nm, Month 3 ([4]; 40° C./75% humidity) | Purity (%), 230 nm, Day 0 ([4]; Day 0)
1 | Cn1c(C(=O)N2CC(F)(F)C2)cc2c1CN(c1ncc(F)c(Nc3ccc(-c4cn[nH]c4)cc3)n1)CC2 [Compound I, (6-(4-((4-(1H-pyrazol-4-yl)phenyl)amino)-5-fluoropyrimidin-2-yl)-1-methyl-4,5,6,7-tetrahydro-1H-pyrrolo[2,3-c]pyridin-2-yl)(3,3-difluoroazetidin-1-yl)methanone] | > 100000 nM | 2040 ng·h/mL | 251 ng/mL | < 5.35 | 7.44 |  |  |  |  |  |  | 
2 | Cn1c(C(=O)N2CC(F)(F)C2)cc2c1CN(c1ncc(F)c(Nc3ccc(-c4cn[nH]c4)cc3)n1)CC2.O=C(O)C(O)C(O)C(=O)O [Crystal form I of tartrate] |  |  |  |  |  | 99.18% | substantially stable | 99.00% | 99.02% | 98.95% | 99.04% | 98.98%
